Experimental data reported in US4131727A, “Method of purifying alcohol dehydrogenase and affinity resin therefor” (President and Fellows of Harvard College, priority 1978, dated 1978).

Experiments:
[1] = biological target: T1, II-ADH (anodic band of liver alcohol dehydrogenase) (Homo sapiens, UniProt P08319); assay: Inhibition of purified II-ADH (anodic band, pyrazole-insensitive liver alcohol dehydrogenase) activity; type: biochemical; details: 33 micromolar 4-methyl-pyrazole, product after agarose-AMP
T1 construct: Starting with 100 g frozen human liver; from tissue; host or cells: human liver (frozen)
Source text: (§1) However, purification of these enzymes has been a complicated and difficult procedure. […] Elution is preferably carried out with pyrazole solution or with a lower alkanol having at least two carbon atoms, e.g., ethanol, 1-propanol, 1-butanol, 1-pentanol, and the like. Further purification and separation of isoenzymes from the bound portion can be achieved by alcohol gradient elution. The alcohol dehydrogenase of the bound portion can be separated from the NAD after elution, if desired, by conventional dialysis procedures. […] The anodic band of liver alcohol dehydrogenase, as identified by Li et al., Biochem. Biophys. Res. Comm.

[2] = tested on: other forms of liver alcohol dehydrogenase; assay: Inhibition of the other (pyrazole-sensitive) forms of liver alcohol dehydrogenase; type: biochemical, human; details: 0.2 mM 4-methylpyrazole, 100 mM ethanol, remainder of the purified enzyme forms
Source text: as §1

[3] = tested on: human liver alcohol dehydrogenase; assay: Inhibition of alcohol dehydrogenase activity of starting human liver; type: biochemical; details: 33 micromolar 4-methyl-pyrazole, pH 10, frozen human liver starting material
Experimental: Starting with 100 g frozen human liver having a specific activity of pH 10 of about 0.05 I.U./mg and low inhibition (~ 75%) by 33 micromolar 4-methyl-pyrazole at pH 10 as well as high intensity of stain for the anodic band on starch gel electrophoresis, the liver was homogenized in 2.5 volumes water at 4° C., centrifuged for 30 min. at 30,000 rpm in a 30 rotor to provide 240 ml of clear supernatant assaying at 58 I.U. of pyrazole-insensitive activity with a specific activity of 0.002 I.U./mg.

[4] = biological target: alcohol dehydrogenase; assay: Dissociation of binary complex of alcohol dehydrogenase with NAD; type: binding; details: read-out: dissociation constant of the complex
Source text: The binary complex, in which two molecules of NAD are complexed with 1 molecule of alcohol dehydrogenase, can be prepared simply by mixing NAD with the crude extract of alcohol dehydrogenase. In order to ensure that substantially all of the alcohol dehydrogenase is present in solution in the form of the binary complex, it is desirable to employ an excess of the amount of NAD over that theoretically required. […] Although larger amounts of NAD can be used, there is no advantage in using a concentration above about 10^-3 molar since optimum results are achieved at that concentration with no further improvement even when the concentration of the NAD is 10^-2 molar or even higher, the results being approximately the same at these higher concentrations. The aqueous medium containing the binary complex may be acidified if desired. Satisfactory results are obtained at pH 8.0, but may be improved by decreasing the pH to approximately 7.5 in order to achieve optimum results; however, no further improvement is achieved by further lowering of the pH, the results remaining about the same even at a pH below 6.

T1 sequence (P08319 2-380 limits assumed): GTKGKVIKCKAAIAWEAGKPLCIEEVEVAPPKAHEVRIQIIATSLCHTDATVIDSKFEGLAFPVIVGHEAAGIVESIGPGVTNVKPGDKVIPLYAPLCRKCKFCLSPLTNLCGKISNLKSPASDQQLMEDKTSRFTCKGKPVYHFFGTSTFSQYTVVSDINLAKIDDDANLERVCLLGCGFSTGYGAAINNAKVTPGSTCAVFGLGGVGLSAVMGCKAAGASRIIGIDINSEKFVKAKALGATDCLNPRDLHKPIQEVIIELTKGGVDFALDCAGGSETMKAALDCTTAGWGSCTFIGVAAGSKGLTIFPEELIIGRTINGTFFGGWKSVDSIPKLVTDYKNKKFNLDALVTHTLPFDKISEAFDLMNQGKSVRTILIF

inhibition (in words) [1]	inhibition of activity [2]	inhibition [3]	Kd [4]	Compound
virtually uninhibited	more than 90%	~ 75%	–	Cc1cn[nH]c1 [4-methylpyrazole]
–	–	–	~1000 nM	NC(=O)c1ccc[n+]([C@@H]2O[C@H](COP(=O)([O-])OP(=O)(O)OC[C@H]3O[C@@H](n4cnc5c(N)ncnc54)[C@H](O)[C@@H]3O)[C@@H](O)[C@H]2O)c1 [NAD]
